This is an account of results in ChEMBL document CHEMBL5356934, “Antibacterial activities of anthraquinones: structure-activity relationships and action mechanisms” (RSC Med Chem, 2023).

≈ marks a conversion by molar mass, not a printed value.

The subject of this assay is Mycobacterium tuberculosis variant bovis. Put plainly: Antimycobacterial activity against Mycobacterium bovis assessed as reduction in bacterial growth. In kind it is functional.

The term MIC denotes the least concentration at which growth counts as inhibited. On to `Cc1cc(O)c2c(c1)C(=O)c1cccc(O)c1C2=O` [CHRYSOPHANOL], for which the MIC came to 64 µg/mL (≈ 252 µM).
